US20260274828A1, “BROAD SPECTRUM ANTIFUNGAL KETO-ALKYL-PYRIDINIUM COMPOUNDS” (priority 2023, published 2026)

Legend:
C. albicans [1] = test: Checkerboard assay with clinical antifungals (FICI); type: cell-based, Candida albicans; settings: with fluconazole
Experimental: To determine if compounds interacted with clinically used antifungal drugs, checkerboard assays were performed and fractional inhibitory concentration indices were determined. […] The FICI for compound B and fluconazole is 8.25 due to the 8-fold increase in fluconazole concentration in the combination; however, the concentration of compound B at FIC is reduced by 4-fold relative to compound B as a single agent (Table 3).

C. albicans [2] = test: Planktonic MIC, CLSI guidelines; type: cell-based, Candida albicans; settings: data not shown
C. auris = test: Ex vivo porcine skin model of Candida auris colonization
Experimental: The collection of porcine skin samples was conducted under protocols approved by the University of Wisconsin-Madison Institutional Animal Care and Use Committee in accordance with published National Institutes of Health (NIH) and United States Department of Agriculture (USDA) guidelines. Excised skin was cleaned and shaved as described previously (Johnson et al., 2022). Full-thickness samples were obtained by 12 mm punch and placed in 12-well plates containing 3 mL Dulbecco's Modified Eagle Medium (DMEM) (Lonza, Walkersville, MD, USA) supplemented with 10% fetal bovine serum (FBS) (Atlanta biologicals, Lawrenceville, GA, USA), penicillin (1,000 U/mL), and streptomycin (1 mg/mL) (Corning, Manassas, VA, USA) for 6 hours. Tissues were rinsed in DBPS and moved to semi-solid media (6:4 ratio of 1% agarose (BIO-RAD, Hercules, CA, USA) in DPBS:DMEM with 10% FBS). Paraffin wax was applied around the edge of the skin and 10 μL C. auris suspended in synthetic sweat medium at 10^7 cells/mL was applied. Samples were incubated at 24 hours and compound A (8 μg/mL or 16 μg/mL) in synthetic sweat medium was applied. After 24 hours a sterile swab was used to remove compound from skin surface. Samples were vortexed in DPBS and plated on YPD+chloramphenicol to assess viable burden.

C. albicans SC5314 = test: Rat model of Candida albicans vascular catheter infection; type: in vivo
Experimental: C. albicans biofilm growth during infection of implanted medical devices was measured using an external jugular-vein, rat-catheter infection model (Nett et al., 2012). Briefly, a 1×10^6 cells/ml inoculum for each strain or strain combination was allowed to grow on an internal jugular catheter placed in a pathogen-free female rat (16-week old, 400 g) for 24 hours. After this period, the catheter volumes were removed and the catheters were flushed with 0.9% NaCl. The biofilms were dislodged by sonication and vortexing. Viable cell counts were determined by dilution plating. Three replicates were performed for each strain.
After a 24 hours biofilm formation phase, the devices were removed, sectioned to expose the intraluminal surface, and processed for SEM imaging. Briefly, one milliliter fixative (4% formaldehyde and 1% glutaraldehyde in PBS) was added to each catheter tube and tubes were fixed at 4° C. overnight. Catheters were then washed with PBS prior to incubation in 1% OsO4 for 30 minutes. Samples were then serially dehydrated in ethanol (30-100%). Critical point drying was used to completely dehydrate the samples prior to palladium-gold coating. Samples were imaged on a SEM LEO 1530, with Adobe Photoshop 2022 (v. 23.2.2) used for image compilation.
One potential approach to managing central venous catheter infections is to treat the lumen of the catheter with an anti-infective solution that is locked within the catheter and not introduced into the patient (Chandra et al., 2018). This strategy is most often applied to catheters infected with bacteria but has been proposed for fungal infections as well (Pappas et al., 2016; Mermel et al., 2009). To test the efficacy of KAPs in this setting, a rat model of C. albicans venous catheter infection was employed (Nett et al., 2023). The catheter was infected with C. albicans SC5314 and, on post-infection day 1, treated with A (8 μg/mL solution within catheter) or vehicle. After 24 hours, the catheter was removed and processed for fungal burden and scanning electron microscopy. […]

[3] = 8 μg/mL solution within catheter, 24 hours

## Nc1cc[n+](CC(=O)c2ccc3c(c2)OC(c2ccccc2)(c2ccccc2)O3)cc1.[Cl-] [Compound A]
C. albicans [1]
  interaction with clinical antifungal: antagonistic
C. albicans [2]
  change in MIC with glycerol instead of glucose as carbon source: not observed
C. auris; 8 μg/mL, 24 hours after a single treatment
  reduction of fungal burden of colonized porcine skin: about 1 log10
C. auris; 16 μg/mL versus 8 μg/mL, 24 hours
  fungal burden of colonized porcine skin: not reduced further
C. auris; 8 or 16 μg/mL, 24 hours
  reduction of C. auris colonization of skin: about 1 log10 CFU
C. albicans SC5314; [3]
  extent of remaining biofilm (scanning electron microscopy): dramatic reduction
  reduction in fungal burden relative to vehicle-treated catheters: > 1 log10
C. albicans SC5314; 8 μg/mL, 24 hr
  fungal burden of the catheter: significantly reduced
